Laboratory results: patent publication US20210145801A1, “THERAPY FOR PROTEIN MISFOLDING DISEASE” (WREN THERAPEUTICS LIMITED, priority 2018, published 2021)
“Also recorded” adds a separate entry of the source. Where two headings read alike, the source gives them in different places.

Assays:
Aβ42 fibrils = biological target: T1, Aβ42 fibrils (Homo sapiens, UniProt P05067); experiment: Dot blot assay with fibril-specific OC antibody; type: biochemical; conditions: 2 μM Aβ42; 5-fold excess of compound; eight time points
T1 construct: made in house; host or cells: E. coli BL21 Gold (DE3)
Description: Blotting was performed using Aβ42 fibril-specific antibody (OC, Millipore). During the time course of the aggregation of a 2 μM Aβ42 in the absence and in the presence of 5-fold excess of Netoglitazone, 4 μL Aβ42 aliquots were removed from the mixture at different time points for blotting with OC. Aβ42 aliquots were spotted onto a nitrocellulose membrane (0.2 μm, Whatman) and then the membranes were dried and then blocked with Blocking One (Nacalai tesque) before immuno-detection. OC was used according to the manufacturer's instructions. Alexa Fluor® 488-conjugated secondary antibodies (Life technologies) were subsequently added and fluorescence detection was performed using Typhoon Trio Imager (GE Healthcare).

[1] = Brain microdialysis time course study (striatum); type: in vivo, male C57BL/6 mice; conditions: 15 mg/kg po; for Netoglitazone (ng/ml) in microdialysate / Netoglitazone (ng/ml) corrected for recovery: striatum; for Netoglitazone (ng/ml) corrected for recovery: recovery 0.11; for concentration at 6 h: terminal sample shortly after 6 hours
Description: To further assess the free drug exposure in the CNS following dosing of Netoglitazone an in vivo surgical microdialysis time course study was performed. Microdialysis is a minimally-invasive sampling technique that is used for continuous measurement of free, unbound analyte concentrations in the extracellular fluid of virtually any tissue (e.g. ISF in the brain). The microdialysis technique requires the insertion of a small microdialysis catheter (also referred to as microdialysis probe) into the tissue of interest. The microdialysis probe is designed to mimic a blood capillary and consists of a shaft with a semipermeable hollow fiber membrane at its tip, which is connected to inlet and outlet tubing. The probe is continuously perfused with an aqueous solution (perfusate) that closely resembles the (ionic) composition of the surrounding tissue fluid at a low flow rate of approximately 0.1-5 μL/min. Once inserted into the tissue or (body)fluid of interest, small solutes can cross the semipermeable membrane by passive diffusion. The direction of the analyte flow is determined by the respective concentration gradient and allows the usage of microdialysis probes as sampling as well as delivery tools. The solution leaving the probe (dialysate) is collected at certain time intervals for analysis. It is widely recognised as the ‘gold standard’ technique for measuring free drug levels in the CNS. Briefly, 3 male C57BL/6 mice (18 weeks old) were surgically prepared with one cannula in the brain to allow for microdialysis sampling from the striatum. Animals were allowed one day to recover and then habituated to the microdialysis cages overnight. On the study day, a microdialysis probe was inserted through the implanted cannula. […] At the end of the experiment animals were anaesthetised and terminal blood and brain samples collected.

Aβ42 oligomers = biological target: T2, Aβ42 oligomers (Homo sapiens, UniProt P05067); experiment: ELISA with oligomer-specific antibody; type: biochemical; conditions: 5 μM Aβ42; 5-fold excess; at half-time of Aβ42 alone
T2 construct: made in house; host or cells: E. coli BL21 Gold (DE3)
Description: 20 μl Aliquots were taken at the t50 (i.e. half-time) from aggregation reactions of 5 μM Aβ42 in the absence and in the presence of 5-fold excess of Netoglitazone. Samples were then immobilised on a 96-well Maxisorp ELISA plate (Nunc, Roskilde, Denmark) with no shaking for 1 h at room temperature. The plate was then washed three times with 20 mM Tris pH 7.4, 100 mM NaCl and incubated in 20 mM Tris pH 7.4, 100 mM NaCl, 5% BSA under constant shaking overnight at 4° C. The day after the plate was washed six times with 20 mM Tris pH 7.4, 100 mM NaCl and then incubated with 30 μl solutions of 5 μM oligomer-specific antibody under constant shaking either for 1 hour or overnight at room temperature. At the end of this incubation, the plate was washed six times with 20 mM Tris pH 7.4, 100 mM NaCl and incubated with 30 μl solutions of Rabbit polyclonal to 6× His Tag® HRP conjugated (Abcam, Cambridge, UK) at a dilution of 1:4000 in 20 mM Tris pH 7.4, 100 mM NaCl, 5% BSA under shaking for 1 hour at room temperature. […] Finally, the amount of bound oligomer-specific antibody was quantified by using 1-Step™ Ultra TMB-ELISA Substrate Solution (ThermoFisher Scientific, Waltham, Mass., United States), according to manufacturer instructions, and measuring the absorbance at 450 nm by means of a CLARIOstar plate reader (BMG Labtech, Aylesbury, UK).

Aβ42 = biological target: T3, Aβ42 (Homo sapiens, UniProt P05067); experiment: Seeded Aβ42 aggregation kinetics (2% or 50% preformed fibril seeds); type: biochemical; conditions: 2 μM Aβ42; 50% seeds; up to 20-fold excess
T3 construct: made in house; host or cells: E. coli BL21 Gold (DE3)
Description: For the seeded experiments, preformed fibrils were prepared just prior to the experiment. Kinetic experiments were set up as described above for 5 μM Aβ42 samples in 20 mM sodium phosphate buffer, pH 8 with […] EDTA, 0.02% NaN3 and 20 μM ThT. The ThT fluorescence was monitored for 3 hours to verify the formation of fibrils. Samples were then collected from the wells into low-binding tubes. Under the considered conditions (i.e. 5 μM Aβ42), the monomer concentration is negligible at equilibrium. The final concentration of fibrils, in monomer equivalents, was considered equal to the initial concentration of monomer. Fibrils were then added to freshly prepared monomer in order to reach either 2% or 50% final concentration of seeds in the absence or the presence of Netoglitazone.
Inhibitors can interfere with the aggregation process by inhibiting one or more of the individual microscopic steps. […]

T3 sequence (P05067 671-713): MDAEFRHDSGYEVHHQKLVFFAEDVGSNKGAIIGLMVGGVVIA
T2 sequence (P05067 671-713): as above
T1 sequence (P05067 671-713): as above

With `O=C1NC(=O)C(Cc2ccc3cc(OCc4ccccc4F)ccc3c2)S1` (centres unmarked) [Netoglitazone] as the compound, how does the “Delay of Aβ42 fibril formation in dot-blot assay” value (Aβ42 fibrils) read?
The value was “identical within experimental error to that observed in the ThT-based assay”.

What about the “Crossing of the blood-brain barrier after oral administration” value [1] of the same compound?
Its value is “readily crosses the blood-brain barrier”.

What about the “First microdialysate fraction in which compound could be detected” value ([1]; post administration) of the same compound?
The value was 30 to 60 min.

And the “Netoglitazone (ng/ml) in microdialysate” value ([1]; 0-30 min after dose)?
Its value is “<LLOQ”.

And the “Netoglitazone (ng/ml) in microdialysate” value ([1]; 30-60 min after dose)?
The value was 0.4 ng/mL.

What about the “Netoglitazone (ng/ml) in microdialysate” value ([1]; 60-90 min after dose) of the same compound?
The value was 0.5 ng/mL.

What about the “Netoglitazone (ng/ml) in microdialysate” value ([1]; 90-120 min after dose) of the same compound?
Its value is 0.7 ng/mL.

What about the “Netoglitazone (ng/ml) in microdialysate” value ([1]; 120-150 min after dose) of the same compound?
Its value is 0.9 ng/mL.

And the “Netoglitazone (ng/ml) in microdialysate” value ([1]; 150-180 min after dose)?
Its value is 1.1 ng/mL.

What about the “Netoglitazone (ng/ml) in microdialysate” value ([1]; 180-210 min after dose) of the same compound?
Its value is 1.3 ng/mL.

What about the “Netoglitazone (ng/ml) in microdialysate” value ([1]; 210-240 min after dose) of the same compound?
Its value is 1.5 ng/mL.

And the “Netoglitazone (ng/ml) in microdialysate” value ([1]; 240-270 min after dose)?
The value was 1.9 ng/mL.

And the “Netoglitazone (ng/ml) in microdialysate” value ([1]; 270-300 min after dose)?
The value was 2.8 ng/mL.

What about the “Netoglitazone (ng/ml) in microdialysate” value ([1]; 300-330 min after dose) of the same compound?
The value was 3.3 ng/mL.

What about the “Netoglitazone (ng/ml) in microdialysate” value ([1]; 330-360 min after dose) of the same compound?
Its value is 3.6 ng/mL.

What about the “Netoglitazone (ng/ml) corrected for recovery” value (“Netoglitazone … for recovery” for short) ([1]; 0-30 min after dose) of the same compound?
Its value is “<LLOQ”.

What about the “Netoglitazone … for recovery” value ([1]; 30-60 min after dose) of the same compound?
Its value is 3.6 ng/mL.

What about the “Netoglitazone … for recovery” value ([1]; 60-90 min after dose) of the same compound?
Its value is 4.5 ng/mL.

And the “Netoglitazone … for recovery” value ([1]; 90-120 min after dose)?
The value was 6.4 ng/mL.

What about the “Netoglitazone … for recovery” value ([1]; 120-150 min after dose) of the same compound?
The value was 8.2 ng/mL.

What about the “Netoglitazone … for recovery” value ([1]; 150-180 min after dose) of the same compound?
The value was 10.0 ng/mL.

What about the “Netoglitazone … for recovery” value ([1]; 180-210 min after dose) of the same compound?
Its value is 11.8 ng/mL.

And the “Netoglitazone … for recovery” value ([1]; 210-240 min after dose)?
Its value is 13.6 ng/mL.

What about the “Netoglitazone … for recovery” value ([1]; 240-270 min after dose) of the same compound?
The value was 17.3 ng/mL.

And the “Netoglitazone … for recovery” value ([1]; 270-300 min after dose)?
Its value is 25.5 ng/mL.

And the “Netoglitazone … for recovery” value ([1]; 300-330 min after dose)?
The value was 30.0 ng/mL.

And the “Netoglitazone … for recovery” value ([1]; 330-360 min after dose)?
The value was 32.7 ng/mL.

What about the Kp at 6 h ([1]; male, C57BL/6, mouse, brain / plasma, terminal samples shortly after 6 hours, read-out: Brain:plasma ratio) of the same compound?
The Kp at 6 h was 0.8.

What about the concentration at 6 h ([1]; male, C57BL/6, mouse, plasma, read-out: Concentration in plasma) of the same compound?
The concentration at 6 h was 13300 ng/mL.

What about the concentration at 6 h ([1]; male, C57BL/6, mouse, whole brain, read-out: Concentration in brain) of the same compound?
Its concentration at 6 h is 10300 ng/g.

What about the “Aβ42 oligomer concentration (ELISA)” value (Aβ42 oligomers) of the same compound?
Its value is “significant reduction in the Aβ42 oligomer concentration”.

What about the “Effect on aggregation kinetics / elongation (k+) with 50% preformed seeds” value (Aβ42) of the same compound?
The value was “did not affect the aggregation kinetics; also recorded: does not affect the elongation rates of Aβ42 aggregation”.
